One compound from patent US20040033982A1, “Viral inhibition by n-docosanol” (priority 2001, published 2004) can be followed below.

SMILES strings stand for the structures. “Also recorded” adds a separate entry of the source. Like-named read-outs stand apart in the source and are kept apart here.

Assay [1] relates to acyclovir-resistant HSV-2. The experiment in a line: Plaque formation by acyclovir-resistant HSV-2 in Vero cells. As to conditions: FIG. 7, Panel B. Type of assay: cell-based. The protocol:
FIG. 7 depicts data showing that n-docosanol inhibits acyclovir-resistant HSV-2. Vero cells were cultured in 35-mm wells (6×10^5 cells per well) in medium alone (=none) or in the presence of the indicated concentration of acyclovir, n-docosanol-Pluronic F-68 suspension or control suspension (Pluronic F-68 only). The cultures were inoculated 24 hours later with 150 PFU of either wild-type HSV-2 or an acyclovir-resistant laboratory isolate from the wild-type HSV-2 that was plaque purified and passaged in 20 μg/ml acyclovir 44 hours later, the plates were incubated, fixed, stained, and scored for numbers of plaques. The data presented are means of plaques scored from duplicate cultures. The percent inhibition observed in cultures treated with acyclovir or n-docosanol relative to untreated control cultures is denoted in parentheses.

The test system of the next assay is HSV. The experiment in a line: Direct viricidal activity (virus mixed with suspension, infectivity recovered). Here is the method:
Extensive studies designed to delineate the mechanism by which n-docosanol exerts its antiviral activity were conducted. The collective implications of the results of the studies are that the compound appears to interfere with one or more of the common pathways of viral entry into the cell and migration to the nucleus of infected target cells.
Instead, the drug apparently modifies the target cell in a manner that inhibits viral replication.

The next assay has as its system Friend virus. Briefly: Friend virus induced leukemia and viremia in mice. Type of assay: in vivo, BALB/c mice. As to conditions: intravenous, day of virus and once daily for the next 3 days. Here is the method:
FIG. 12 depicts data showing that n-docosanol inhibits in vivo Friend virus induced leukemia and viremia. Adult BALB/c mice were injected intravenously with 75 spleen focus-forming units of FV. Treated groups were injected intravenously with the indicated doses of n-docosanol or Pluronic vehicle alone on the same day as virus inoculation and once daily for the next 3 days. After 10 days, half of the animals in each group were sacrificed and examined for leukemic foci in their spleens (panel A). The remaining mice were retained 10 more days and bled for viremia determinations (panel B). Viremia was measured using the X-C plaque assay. Briefly, primary fibroblast cultures were derived by digestion of 14-day BALB/c embryos with trypsin and culturing in DMEM plus 10% fetal calf serum. After 72 hours, the cells were transferred into 16-mm dishes (10^5/well), pretreated with 5 μg/ml polybrene and then infected with 75 X-C plaque-forming units of Friend virus stock or dilution of test plasma. After incubation for 7 days, the cultures were irradiated and overlaid with X-C cells (3×10^5/well). Three days later, the cultures were washed, stained, and scored for plaques of multinucleated giant cells. The data presented are geometric means and standard errors of splenic foci or X-C plaque-forming units derived from three animals per group. […]

The next assay has as its system HIV-1. The experiment in a line: HIV-1 replication in PHA/IL-2-stimulated peripheral blood mononuclear cells (p24 ELISA). Type of assay: cell-based, human. As to conditions: 4 days after inoculation. The protocol:
FIG. 13 depicts data showing that n-docosanol inhibits in vitro replication of HIV-1 in cultures of PHA/IL-2-stimulated human peripheral blood mononuclear cells. Human peripheral blood mononuclear cells were cultured in medium containing 1 μg/ml PHA plus 5 units/ml IL-2 alone or also containing 100 μg/ml PFA, the indicated dosage of n-docosanol/Pluronic F68, or the amount of Pluronic F-68 control vehicle contained in the high dose of n-docosanol/Pluronic F-68. After overnight incubation, the cultures were inoculated with HIV-1 at a multiplicity of infection of 1 virion/cell. After 24 hours incubation at 37° C., the cultures were washed and inoculated with fresh medium containing PHA and IL-2, but lacking inhibitor. Replication of HIV-1 was determined 4 days later by quantitation of viral antigens by a p24-specific ELISA for HIV-1.
The initial studies on HIV were conducted in collaboration with a U.S. National Institutes of Health Laboratory and one of several experiments of this type is summarized in FIG. 13. Normal human peripheral blood mononuclear cells were activated with 1 μg/ml PHA plus 5 units/ml of IL-2 in medium alone or in the presence of n-docosanol, Pluronic […] control vehicle, or phosphonformic acid (PFA). The next day, the cultures were inoculated with HIV-1 and examined 4 days later for evidence of viral replication by detection of the p24 viral antigen.

The subject of a further assay is HSV-2. The experiment in a line: Fusion of octadecyl rhodamine B chloride-labeled HSV-2 with NC-37 human B cells. Type of assay: cell-based. The protocol: NC-37 human B cells were inoculated in the presence of 15 mM n-docosanol, the corresponding concentration of Tetronic 908 (0.1 mM) or without addition. Cells were harvested and R-18-labeled HSV-2 was added to aliquots in the presence of compounds at their original concentration. Following incubation at 37° C. for the times indicated, cells were fixed and fluorescence intensity determined by FACScan.
The HSV envelope was labeled with octadecyl rhodamine B chloride (R-18). NC-37 human B cells were inoculated at 2.5×10^5 cells/ml, 25 ml per flask. Cells were incubated overnight at 37° C. with no addition or in the presence of 15 mM n-docosanol or the corresponding concentration of Tetronic 908. […] Fluorescence intensity was measured by using a fluorescence-activated cell sorter (FACScan; Becton-Dickinson).
Because of the selectivity of the inhibitory effects of n-docosanol for lipid-enveloped fusion-dependent viruses and the absence of viricidal effects, we considered the possibility that n-docosanol may inhibit viral entry by altering target cell membranes to prevent effective fusion of viral particles with target cells. To investigate the effects of n-docosanol on HSV fusion with cellular membranes we conducted fluorescence dequenching assays. […] This relieves fluorescence self-quenching and causes an increase in signal intensity.

With `CCCCCCCCCCCCCCCCCCCCCCO` [n-docosanol], the “inhibition of plaque formation” value in assay [1] was “inhibited”. Further, the direct viricidal activity result with HSV is listed as “no direct viricidal activity; also recorded: does not directly inactivate virus”. For the same compound, the “development of leukemic foci in spleens” value with Friend virus (day 10) is “very clear dose-related inhibitory affect”. Moreover, in the assay with Friend virus (day 20), the development of viremia result is “very clear dose-related inhibitory affect”. The “inhibitory activity against HIV-1 (p24 viral antigen)” value in the assay with HIV-1 is recorded as “dose-related inhibitory activity; also recorded: comparable to that observed with the very potent antiviral compound, phosphonoformic acid (PFA)”. Further, the inhibition at 15000 µM in the assay with HSV-2 (Human alphaherpesvirus 2, NC-37, read-out: inhibition of fluorescent response compared to Tetronic control) is ≤ 76%; in the assay with HSV-2 (Human alphaherpesvirus 2, NC-37, read-out: inhibition of relative increase in fluorescence intensity compared to cells receiving no treatment) it was ~50%.
